{
  "source": "paper PMC12214875",
  "about": "(Molecular Cancer Therapeutics, 2025)",
  "key": {"[1]": {"target": "LCK (Homo sapiens, UniProt P06239)", "sequence (P06239 whole entry)": "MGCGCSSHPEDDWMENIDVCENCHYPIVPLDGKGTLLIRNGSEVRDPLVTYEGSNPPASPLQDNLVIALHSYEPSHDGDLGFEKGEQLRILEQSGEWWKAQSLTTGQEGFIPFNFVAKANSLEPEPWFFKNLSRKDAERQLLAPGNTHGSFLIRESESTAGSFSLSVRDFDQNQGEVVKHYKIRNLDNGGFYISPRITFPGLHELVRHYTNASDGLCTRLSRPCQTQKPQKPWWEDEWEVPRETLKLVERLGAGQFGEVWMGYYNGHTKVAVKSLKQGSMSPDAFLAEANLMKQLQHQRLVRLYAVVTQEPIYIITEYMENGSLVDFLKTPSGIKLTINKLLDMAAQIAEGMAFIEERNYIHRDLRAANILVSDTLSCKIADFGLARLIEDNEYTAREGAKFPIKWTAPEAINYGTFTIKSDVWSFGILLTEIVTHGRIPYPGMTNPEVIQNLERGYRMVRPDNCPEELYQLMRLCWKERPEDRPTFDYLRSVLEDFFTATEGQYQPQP", "test": "HotSpot kinase profiling panel (398 kinases)", "assay_type": "biochemical", "settings": "1 μmol/L, single-dose singlicate", "protocol": "(§1) In vitro kinase assays with radioactive assay formats were performed at Reaction Biology Corp. according to their standard protocols. […] IC50 values for KIT-mutant kinases and for FLT3 and VEGFR2 (KDR) were determined with dose–response curves using a 10-dose threefold serial dilution in duplicates. Fitting of dose–response curves and calculation of IC50 values were performed with sigmoidal dose–response equations using GraphPad Prism software (RRID: SCR_002798; version 8)."}, "[2]": {"target": "CSF1R (FMS) (Homo sapiens, UniProt P07333)", "sequence (P07333 20-972)": "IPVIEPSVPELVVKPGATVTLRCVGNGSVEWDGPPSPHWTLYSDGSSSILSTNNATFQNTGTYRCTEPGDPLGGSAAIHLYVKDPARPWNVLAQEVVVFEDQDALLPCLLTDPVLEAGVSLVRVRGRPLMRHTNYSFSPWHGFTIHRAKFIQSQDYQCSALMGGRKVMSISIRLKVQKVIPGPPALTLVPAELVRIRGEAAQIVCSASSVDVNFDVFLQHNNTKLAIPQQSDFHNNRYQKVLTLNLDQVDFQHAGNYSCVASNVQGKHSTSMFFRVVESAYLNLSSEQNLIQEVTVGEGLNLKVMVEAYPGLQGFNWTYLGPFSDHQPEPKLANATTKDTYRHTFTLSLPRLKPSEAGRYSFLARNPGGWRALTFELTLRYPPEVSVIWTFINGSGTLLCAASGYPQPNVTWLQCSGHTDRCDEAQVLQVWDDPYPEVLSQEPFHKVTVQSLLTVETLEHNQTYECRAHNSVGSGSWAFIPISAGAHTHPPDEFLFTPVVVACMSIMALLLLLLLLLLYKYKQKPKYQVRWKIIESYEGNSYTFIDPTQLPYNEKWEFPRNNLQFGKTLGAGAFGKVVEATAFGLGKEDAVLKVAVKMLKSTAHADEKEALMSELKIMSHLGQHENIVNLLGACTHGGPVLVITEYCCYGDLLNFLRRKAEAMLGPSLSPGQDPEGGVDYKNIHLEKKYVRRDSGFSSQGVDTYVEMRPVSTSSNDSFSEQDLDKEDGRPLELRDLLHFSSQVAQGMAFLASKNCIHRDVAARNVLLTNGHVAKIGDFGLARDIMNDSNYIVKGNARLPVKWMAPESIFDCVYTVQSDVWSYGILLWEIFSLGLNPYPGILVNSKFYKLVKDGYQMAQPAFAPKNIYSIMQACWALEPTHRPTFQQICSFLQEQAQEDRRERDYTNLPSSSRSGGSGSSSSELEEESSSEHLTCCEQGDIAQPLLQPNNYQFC", "test": "HotSpot kinase profiling panel (398 kinases)", "assay_type": "biochemical", "settings": "1 μmol/L, single-dose singlicate", "protocol": "as §1"}, "[3]": {"system": "ERK1/2", "test": "Cellular ERK1/2 phosphorylation (MSD)", "assay_type": "cell-based", "settings": "GIST cell lines, 45 minutes", "protocol": "Cellular levels of ERK1/2 phosphorylation were detected in drug-treated GIST430, GIST430/654, and Kasumi-1 cell lysates using the MSD MULTI-SPOT Biomarker Detection Base Kit Phospho (T202/Y204; T185/Y187)/Total ERK1/2 according to the manufacturer’s instructions (MSD, #15107A-3).\nSupplementary Figure S2: Cellular inhibition of P-ERK1/2 and P-AKT with M4205.\n(A)Treatment of KIT mutant cell lines GIST430, GIST430/654 and Kasumi-1 with M4205 for 45 minutes reduced P-T202/Y204-ERK1 / P-T185/Y187-ERK2 level in a dose-dependent manner. (B) Treatment of KIT mutant cell lines GIST430 and GIST430/654 with M4205 for 45 minutes reduced P-AKT level in a dose-dependent manner. Shown are individual experiments with technical duplicates. Signals for P-AKT were below detection level in […]\n(1 picture or pasted object on this page, not shown here)"}},
  "data": [
    {"smiles": "Cn1cc(-c2ccc(CNc3cc(-c4cnc5cc(OCCCN6CCCC6)ccn45)ncn3)cc2)cn1", "note": "[M4205]", "values": [
      {"measurement": "kinase inhibition", "setting": "[1]", "result": "more than 80%"},
      {"measurement": "kinase inhibition", "setting": "[2]", "result": "more than 80%"},
      {"measurement": "reduction of P-ERK1/2", "setting": "[3]", "result": "reduced within the same potency range as KIT inhibition"}
    ]}
  ]
}
